Reference: patent US10543262B2, “Combination therapy utilizing P2X7 peptides” (BIOSCEPTRE (AUST) PTY LTD, priority 2011, dated 2020)

Tested on: nfP2X7 receptors
Test: ELISA of specific anti-nfP2X7 antibody response in patient serum after immunisation with peptide-KLH conjugate
Format: in vivo, human
Experimental: Peptide immunogen was synthesised to high purity in the form GHNYTTRNILPGLNITC (SEQ ID NO:2) to which was added the cross-linker maleimidocaproyl-N-hydroxysuccinimide (MCS) at the C-terminal Cys residue. The peptide was cross-linked to a carrier protein Keyhole Limpet Hemocyanin (KLH) such that the average percentage of peptide to total peptide-protein conjugate was 40%. This peptide or the alternative peptide […] (SEQ ID NO:5) similarly conjugated to KLH constituted selective epitope targets, primary and compound respectively that enabled differentiation of the nfP2X7 receptors to be made from native receptors.
The peptide-protein conjugate was added at a concentration of 2.5 mg/mL conjugate (1 mg/mL peptide) dropwise with thorough mixing in the adjuvant in an amount equal to 0.5 mL conjugate to 0.75 mL adjuvant containing 0.5 mg of target peptide epitope.
The immunisation schedule consisted of a primary inoculation (two injections subcutaneously and two injections intramuscularly) of a total of 0.5 mg peptide followed a month later with a boost applied the same way with 0.3 mg peptide. Serum samples were collected immediately prior to and a week post injections. Inoculation is ideally administered no less than a month after the final infusion of anti-nfP2X7 antibody to ensure no sequestration of the immunogen by residual specific anti-nfP2X7 antibody infusate.
Specific anti-nfP2X7 antibody responses were measured by ELISA. In brief, the ELISA plate was coated with specific target peptide epitope, either naked or conjugated to a carrier other than the one against which the antibody response was generated, over which patient serum is added in a descending concentration. After washing, an appropriate secondary anti-human antibody (anti-IgM or anti-IgG types) is applied to detect and determine the concentration of specific human anti-nfP2X7 antibody present in the patient serum in the form of IgM or IgG.

[1] = following the primary inoculation (0.5 mg peptide)

Sequence: GHNYTTRNILPGLNITC
- specific anti-nfP2X7 IgM concentration in patient serum (ELISA) (following the boost (0.3 mg peptide)): returned to a baseline of zero
- specific anti-nfP2X7 IgG concentration in patient serum (ELISA) (following the boost, provided no nfP2X7 receptor sink is present on extant tumor): higher concentration than the original IgM
- specific anti-nfP2X7 IgG in patient serum (ELISA) [1]: no IgG is detectable
- specific anti-nfP2X7 IgM in patient serum (ELISA) [1]: a small amount of IgM is detected
- circulating anti-nfP2X7 antibody response in serum (ELISA) (patient with moderate tumor burden, Week 13, 9 weeks post boost): small level
- circulating antibody present in serum (ELISA) (patient with moderate tumor burden, intermediate measurements Weeks 5 to 12): little circulating antibody was present
- antibodies to the peptide detected in serum (ELISA) (patient with moderate tumor burden, pre-boost serum at Week 4, 4 weeks post initial immunisation): No antibodies were detected
- circulating antibody levels detected in serum (ELISA) (patient with very small residual tumor burden, Week 5, 1 week post boost): much higher than in the patient who had a moderate tumor mass
- specific endogenous anti-nfP2X7 antibody detected in the serum (patients without nfP2X7 receptor sink (original tumor cleared), after boost): ~5 mg/kg
